Measurements: US11542240B2, “STK19 inhibitors for treatment of cancer” (TRUSTEES OF BOSTON UNIVERSITY, priority 2018, dated 2023)
Where two headings read alike, the source gives them in different places.

Key:
Assay in all cases: biochemical
Assay type in all cases: binding
[1] = target: panel of 468 diverse kinases (Homo sapiens, UniProt O00238); details: BMPR1B; 1000 nM; read-out: Percent Control
[2] = target: panel of 468 diverse kinases (Homo sapiens, UniProt O14936); details: CASK; 1000 nM; read-out: Percent Control
[3] = target: panel of 468 diverse kinases (Homo sapiens, UniProt O15111); details: IKK-alpha; 1000 nM; read-out: Percent Control
[4] = target: panel of 468 diverse kinases (Homo sapiens, UniProt O43353); details: RIPK2; 1000 nM; read-out: Percent Control
[5] = target: panel of 468 diverse kinases (Homo sapiens, UniProt O60674); details: JAK2(JH1domain-catalytic); 1000 nM; read-out: Percent Control
[6] = target: panel of 468 diverse kinases (Homo sapiens, UniProt O75914); details: PAK3; 1000 nM; read-out: Percent Control
[7] = target: panel of 468 diverse kinases (Homo sapiens, UniProt P00533, L861Q); details: EGFR(L861Q); 1000 nM; read-out: Percent Control
[8] = target: panel of 468 diverse kinases (Homo sapiens, UniProt P07949, M918T); details: RET(M918T); 1000 nM; read-out: Percent Control
Sequence of panel of 468 diverse kinases (Homo sapiens, UniProt P07949, M918T) (P07949 29-1114 M918T limits assumed): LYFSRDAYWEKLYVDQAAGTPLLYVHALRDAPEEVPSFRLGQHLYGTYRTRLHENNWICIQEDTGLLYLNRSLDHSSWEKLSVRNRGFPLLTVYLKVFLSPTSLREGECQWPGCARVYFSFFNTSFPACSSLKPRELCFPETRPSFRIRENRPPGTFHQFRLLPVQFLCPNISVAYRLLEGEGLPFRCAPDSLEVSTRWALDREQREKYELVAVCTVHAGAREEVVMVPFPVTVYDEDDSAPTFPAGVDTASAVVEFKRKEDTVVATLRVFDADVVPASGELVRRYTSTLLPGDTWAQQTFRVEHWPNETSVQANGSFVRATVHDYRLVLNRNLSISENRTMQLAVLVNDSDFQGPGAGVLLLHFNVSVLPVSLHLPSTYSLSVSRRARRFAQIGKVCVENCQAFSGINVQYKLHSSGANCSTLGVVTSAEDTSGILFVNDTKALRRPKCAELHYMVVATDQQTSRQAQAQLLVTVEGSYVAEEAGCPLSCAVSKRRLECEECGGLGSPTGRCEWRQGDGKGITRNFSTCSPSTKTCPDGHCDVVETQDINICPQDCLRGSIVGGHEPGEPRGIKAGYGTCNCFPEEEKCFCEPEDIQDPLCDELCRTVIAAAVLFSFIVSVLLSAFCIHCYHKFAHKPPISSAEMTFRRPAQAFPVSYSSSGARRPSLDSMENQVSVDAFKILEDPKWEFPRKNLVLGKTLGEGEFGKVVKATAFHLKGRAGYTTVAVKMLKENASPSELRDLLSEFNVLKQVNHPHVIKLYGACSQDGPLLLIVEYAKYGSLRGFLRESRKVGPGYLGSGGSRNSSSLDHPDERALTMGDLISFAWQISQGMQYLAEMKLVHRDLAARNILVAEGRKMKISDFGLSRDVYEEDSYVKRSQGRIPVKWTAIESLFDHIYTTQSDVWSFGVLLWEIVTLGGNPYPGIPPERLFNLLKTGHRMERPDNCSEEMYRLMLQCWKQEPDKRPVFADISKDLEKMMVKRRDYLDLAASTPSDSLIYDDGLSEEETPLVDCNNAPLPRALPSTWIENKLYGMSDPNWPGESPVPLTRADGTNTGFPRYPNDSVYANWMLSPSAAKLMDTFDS

[9] = target: panel of 468 diverse kinases (Homo sapiens, UniProt P10721); details: 1000 nM, read-out: Percent Control
Sequence of panel of 468 diverse kinases (Homo sapiens, UniProt P10721) (P10721 26-976 limits assumed): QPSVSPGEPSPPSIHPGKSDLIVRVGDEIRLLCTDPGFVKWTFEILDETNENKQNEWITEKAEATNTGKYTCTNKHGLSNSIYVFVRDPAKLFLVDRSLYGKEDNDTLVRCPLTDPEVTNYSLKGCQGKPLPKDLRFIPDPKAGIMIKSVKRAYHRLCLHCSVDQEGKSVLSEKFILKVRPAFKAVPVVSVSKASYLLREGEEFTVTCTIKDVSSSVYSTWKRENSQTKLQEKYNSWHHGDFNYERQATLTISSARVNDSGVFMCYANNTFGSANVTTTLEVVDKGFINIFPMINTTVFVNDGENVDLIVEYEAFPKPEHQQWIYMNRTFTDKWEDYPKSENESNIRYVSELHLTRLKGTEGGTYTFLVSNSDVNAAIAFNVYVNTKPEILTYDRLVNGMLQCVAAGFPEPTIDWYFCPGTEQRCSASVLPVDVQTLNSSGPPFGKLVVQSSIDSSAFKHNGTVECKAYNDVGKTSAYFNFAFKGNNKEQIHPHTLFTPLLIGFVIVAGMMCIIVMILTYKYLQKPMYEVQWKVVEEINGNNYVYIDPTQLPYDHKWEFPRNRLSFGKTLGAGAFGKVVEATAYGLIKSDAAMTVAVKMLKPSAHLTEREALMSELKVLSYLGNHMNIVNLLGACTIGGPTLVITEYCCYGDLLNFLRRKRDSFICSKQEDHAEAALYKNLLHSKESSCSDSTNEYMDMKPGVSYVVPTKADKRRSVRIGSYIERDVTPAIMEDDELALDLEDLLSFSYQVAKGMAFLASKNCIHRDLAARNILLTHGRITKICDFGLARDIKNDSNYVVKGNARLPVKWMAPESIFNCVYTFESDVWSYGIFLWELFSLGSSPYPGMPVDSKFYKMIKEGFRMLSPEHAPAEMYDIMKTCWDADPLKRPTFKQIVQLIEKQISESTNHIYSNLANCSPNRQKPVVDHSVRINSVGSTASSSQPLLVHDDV

[10] = target: panel of 468 diverse kinases (Homo sapiens, UniProt P15056); details: BRAF; 1000 nM; read-out: Percent Control
Sequence of panel of 468 diverse kinases (Homo sapiens, UniProt P15056) (P15056 2-766 limits assumed): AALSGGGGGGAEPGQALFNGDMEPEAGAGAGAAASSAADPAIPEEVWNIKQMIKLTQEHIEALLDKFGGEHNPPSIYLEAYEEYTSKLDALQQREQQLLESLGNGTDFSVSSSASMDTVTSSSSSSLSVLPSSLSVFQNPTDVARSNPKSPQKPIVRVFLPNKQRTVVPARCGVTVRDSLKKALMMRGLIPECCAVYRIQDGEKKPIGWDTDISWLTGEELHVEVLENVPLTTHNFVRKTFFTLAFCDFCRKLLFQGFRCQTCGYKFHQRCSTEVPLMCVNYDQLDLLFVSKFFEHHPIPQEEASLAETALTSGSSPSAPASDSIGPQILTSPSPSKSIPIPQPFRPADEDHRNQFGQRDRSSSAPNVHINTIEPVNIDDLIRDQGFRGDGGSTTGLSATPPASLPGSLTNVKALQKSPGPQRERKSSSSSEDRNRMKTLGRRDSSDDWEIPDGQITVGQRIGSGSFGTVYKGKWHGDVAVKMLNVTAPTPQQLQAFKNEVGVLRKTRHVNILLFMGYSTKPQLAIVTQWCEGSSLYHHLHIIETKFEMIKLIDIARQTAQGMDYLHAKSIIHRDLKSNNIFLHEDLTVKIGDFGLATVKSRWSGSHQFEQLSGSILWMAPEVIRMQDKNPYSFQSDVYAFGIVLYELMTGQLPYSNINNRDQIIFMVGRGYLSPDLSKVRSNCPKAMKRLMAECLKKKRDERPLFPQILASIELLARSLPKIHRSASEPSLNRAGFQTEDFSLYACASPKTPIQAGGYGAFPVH

[11] = target: panel of 468 diverse kinases (Homo sapiens, UniProt P27037); details: ACVR2A; 1000 nM; read-out: Percent Control
Sequence of panel of 468 diverse kinases (Homo sapiens, UniProt P27037) (P27037 20-513 limits assumed): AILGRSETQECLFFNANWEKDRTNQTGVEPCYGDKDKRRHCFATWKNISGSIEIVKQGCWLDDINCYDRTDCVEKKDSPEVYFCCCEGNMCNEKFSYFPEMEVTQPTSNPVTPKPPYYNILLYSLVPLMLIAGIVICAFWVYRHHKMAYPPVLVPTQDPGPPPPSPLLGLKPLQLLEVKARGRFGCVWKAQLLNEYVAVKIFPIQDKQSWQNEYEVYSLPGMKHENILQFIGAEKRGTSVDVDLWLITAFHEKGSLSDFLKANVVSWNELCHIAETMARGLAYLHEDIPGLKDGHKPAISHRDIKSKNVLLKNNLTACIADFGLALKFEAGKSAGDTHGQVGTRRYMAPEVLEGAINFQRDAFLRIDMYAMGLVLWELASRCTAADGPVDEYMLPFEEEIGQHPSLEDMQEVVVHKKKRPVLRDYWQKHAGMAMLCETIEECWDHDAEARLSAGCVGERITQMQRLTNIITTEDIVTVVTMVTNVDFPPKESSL

[12] = target: panel of 468 diverse kinases (Homo sapiens, UniProt P31152); details: ERK4; 1000 nM; read-out: Percent Control
[13] = target: panel of 468 diverse kinases (Homo sapiens, UniProt P36896); details: ACVR1B; 1000 nM; read-out: Percent Control
Sequence of panel of 468 diverse kinases (Homo sapiens, UniProt P36896) (P36896 24-505 limits assumed): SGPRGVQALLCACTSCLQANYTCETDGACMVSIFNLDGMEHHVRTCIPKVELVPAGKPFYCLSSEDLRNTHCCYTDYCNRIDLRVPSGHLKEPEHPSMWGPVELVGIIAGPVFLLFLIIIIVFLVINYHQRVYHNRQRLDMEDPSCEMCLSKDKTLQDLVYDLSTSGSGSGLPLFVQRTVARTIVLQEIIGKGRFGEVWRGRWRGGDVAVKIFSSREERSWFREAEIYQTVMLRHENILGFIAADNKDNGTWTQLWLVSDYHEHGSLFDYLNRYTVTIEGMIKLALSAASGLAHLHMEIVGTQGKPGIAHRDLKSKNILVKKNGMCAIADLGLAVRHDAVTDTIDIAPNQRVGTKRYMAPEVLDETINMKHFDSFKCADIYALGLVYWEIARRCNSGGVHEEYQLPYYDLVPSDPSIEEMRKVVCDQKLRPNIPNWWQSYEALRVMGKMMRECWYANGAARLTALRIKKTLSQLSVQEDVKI

[14] = target: panel of 468 diverse kinases (Homo sapiens, UniProt P37173); details: TGFBR2; 1000 nM; read-out: Percent Control
[15] = target: panel of 468 diverse kinases (Homo sapiens, UniProt P42336, E542K); details: PIK3CA(E542K); 1000 nM; read-out: Percent Control
[16] = target: panel of 468 diverse kinases (Homo sapiens, UniProt P42338); details: PIK3CB; 1000 nM; read-out: Percent Control
[17] = target: panel of 468 diverse kinases (Homo sapiens, UniProt P51957); details: NEK4; 1000 nM; read-out: Percent Control
[18] = target: panel of 468 diverse kinases (Homo sapiens, UniProt P53667); details: LIMK1; 1000 nM; read-out: Percent Control
[19] = target: panel of 468 diverse kinases (Homo sapiens, UniProt Q04759); details: PRKCQ; 1000 nM; read-out: Percent Control
[20] = target: panel of 468 diverse kinases (Homo sapiens, UniProt Q13188); details: MST2; 1000 nM; read-out: Percent Control
[21] = target: panel of 468 diverse kinases (Homo sapiens, UniProt Q15303); details: ERBB4; 1000 nM; read-out: Percent Control
[22] = target: panel of 468 diverse kinases (Homo sapiens, UniProt Q15746); details: MYLK; 1000 nM; read-out: Percent Control
[23] = target: panel of 468 diverse kinases (Homo sapiens, UniProt Q16620); details: TRKB; 1000 nM; read-out: Percent Control
Sequence of panel of 468 diverse kinases (Homo sapiens, UniProt Q16620) (Q16620 32-822 limits assumed): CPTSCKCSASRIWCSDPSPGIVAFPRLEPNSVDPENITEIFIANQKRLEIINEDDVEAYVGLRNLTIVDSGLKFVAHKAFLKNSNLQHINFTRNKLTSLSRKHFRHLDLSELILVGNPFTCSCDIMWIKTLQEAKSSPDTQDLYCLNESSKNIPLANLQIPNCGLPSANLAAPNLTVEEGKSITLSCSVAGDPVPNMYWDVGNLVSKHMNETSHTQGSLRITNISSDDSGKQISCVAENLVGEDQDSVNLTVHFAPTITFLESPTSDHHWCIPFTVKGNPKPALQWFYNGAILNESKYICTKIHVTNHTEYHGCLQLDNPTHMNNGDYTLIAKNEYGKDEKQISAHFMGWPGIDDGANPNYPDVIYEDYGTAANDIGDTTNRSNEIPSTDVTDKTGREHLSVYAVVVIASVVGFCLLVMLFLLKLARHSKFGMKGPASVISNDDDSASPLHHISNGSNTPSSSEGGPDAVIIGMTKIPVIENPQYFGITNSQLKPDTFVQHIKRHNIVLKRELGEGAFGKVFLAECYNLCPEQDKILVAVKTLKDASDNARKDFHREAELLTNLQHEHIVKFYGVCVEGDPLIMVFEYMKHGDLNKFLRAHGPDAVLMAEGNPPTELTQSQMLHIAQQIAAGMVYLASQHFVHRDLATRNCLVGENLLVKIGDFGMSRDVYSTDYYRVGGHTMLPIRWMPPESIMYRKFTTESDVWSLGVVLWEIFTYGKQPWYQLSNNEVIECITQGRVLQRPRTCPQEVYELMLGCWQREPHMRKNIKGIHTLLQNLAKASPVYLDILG

[24] = target: panel of 468 diverse kinases (Homo sapiens, UniProt Q8IY84); details: NIM1; 1000 nM; read-out: Percent Control
[25] = target: panel of 468 diverse kinases (Homo sapiens, UniProt Q8TF76); details: HASPIN; 1000 nM; read-out: Percent Control
[26] = target: panel of 468 diverse kinases (Homo sapiens, UniProt Q96NX5); details: CAMK1G; 1000 nM; read-out: Percent Control
[27] = target: panel of 468 diverse kinases (Homo sapiens, UniProt Q99640); details: PKMYT1; 1000 nM; read-out: Percent Control
[28] = target: panel of 468 diverse kinases (Homo sapiens, UniProt Q9BUB5); details: MKNK1; 1000 nM; read-out: Percent Control
[29] = target: panel of 468 diverse kinases (Homo sapiens, UniProt Q9H0K1); details: SIK2; 1000 nM; read-out: Percent Control
[30] = target: panel of 468 diverse kinases (Homo sapiens, UniProt Q9UKE5); details: TNIK; 1000 nM; read-out: Percent Control
[31] = target: panel of 468 diverse kinases (Homo sapiens, UniProt Q9UQB9); details: AURKC; 1000 nM; read-out: Percent Control

Sequence of panel of 468 diverse kinases (Homo sapiens, UniProt O00238) (O00238 14-502 limits assumed): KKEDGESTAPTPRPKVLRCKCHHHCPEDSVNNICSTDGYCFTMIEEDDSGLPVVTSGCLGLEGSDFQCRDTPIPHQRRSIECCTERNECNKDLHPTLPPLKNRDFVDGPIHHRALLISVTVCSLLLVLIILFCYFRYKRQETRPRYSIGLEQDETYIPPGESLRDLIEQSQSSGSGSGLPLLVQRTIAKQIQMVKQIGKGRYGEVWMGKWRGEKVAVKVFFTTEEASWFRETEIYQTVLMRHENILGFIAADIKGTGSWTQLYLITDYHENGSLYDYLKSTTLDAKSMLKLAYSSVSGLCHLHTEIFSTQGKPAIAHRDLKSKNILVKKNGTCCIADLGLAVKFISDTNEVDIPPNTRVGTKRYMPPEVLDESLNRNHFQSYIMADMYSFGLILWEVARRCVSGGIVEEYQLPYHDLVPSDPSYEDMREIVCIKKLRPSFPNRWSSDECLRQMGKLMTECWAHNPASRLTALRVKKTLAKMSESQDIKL

Q: Which remaining activity at 1 µM [1] does the source give for `COc1cc2nc(NC3CC3)nc(NC3CCN(C(C)C)CC3)c2cc1OC` [Formula IV] here?
A: 55%

Q: And the remaining activity at 1 µM [2]?
A: 60%

Q: And the remaining activity at 1 µM [3]?
A: 80%

Q: And the remaining activity at 1 µM [4]?
A: 94%

Q: And the remaining activity at 1 µM [5]?
A: 74%

Q: What about the remaining activity at 1 µM [6] of the same compound?
A: 71%

Q: And the remaining activity at 1 µM [7]?
A: 75%

Q: What about the remaining activity at 1 µM [8] of the same compound?
A: 85%

Q: And the remaining activity at 1 µM ([9]; KIT-autoinhibited)?
A: 57%

Q: What about the remaining activity at 1 µM ([9]; KIT) of the same compound?
A: 95%

Q: And the remaining activity at 1 µM [10]?
A: 88%

Q: And the remaining activity at 1 µM [11]?
A: 100%

Q: And the remaining activity at 1 µM [12]?
A: 91%

Q: What about the remaining activity at 1 µM [13] of the same compound?
A: 94%

Q: What about the remaining activity at 1 µM [14] of the same compound?
A: 94%

Q: What about the remaining activity at 1 µM [15] of the same compound?
A: 70%

Q: And the remaining activity at 1 µM [16]?
A: 71%

Q: And the remaining activity at 1 µM [17]?
A: 69%

Q: And the remaining activity at 1 µM [18]?
A: 100%

Q: And the remaining activity at 1 µM [19]?
A: 86%

Q: What about the remaining activity at 1 µM [20] of the same compound?
A: 100%

Q: What about the remaining activity at 1 µM [21] of the same compound?
A: 96%

Q: And the remaining activity at 1 µM [22]?
A: 49%

Q: What about the remaining activity at 1 µM [23] of the same compound?
A: 48%

Q: What about the remaining activity at 1 µM [24] of the same compound?
A: 72%

Q: What about the remaining activity at 1 µM [25] of the same compound?
A: 71%

Q: And the remaining activity at 1 µM [26]?
A: 99%

Q: What about the remaining activity at 1 µM [27] of the same compound?
A: 93%

Q: What about the remaining activity at 1 µM [28] of the same compound?
A: 100%

Q: What about the remaining activity at 1 µM [29] of the same compound?
A: 81%

Q: What about the remaining activity at 1 µM [30] of the same compound?
A: 98%

Q: What about the remaining activity at 1 µM [31] of the same compound?
A: 100%
